# Source: patent US20050009924A1 (priority 2003, published 2005)
# Columns and labels:
# [1] = MTT relative viability, PhTERT-SEAP (hTERT-BJ1) cells; details: human
# rat glioma C6 cells = assay: Cytotoxicity assay (XTT colorimetric), C6 cells; assay type: cell-based; details: 48 h of drug exposure
# human hepatoma G2 cells = assay: Cytotoxicity assay (XTT colorimetric), Hep G2; assay type: cell-based; details: 48 h of drug exposure
# [2] = tested on: transcriptional activity of hTERT; assay: SEAP reporter assay of hTERT expression, PhTERT-SEAP (H1299); assay type: cell-based, human; details: Homo sapiens, NCI-H1299, hTERT-H1299, read-out: Relative SEAP activity (%)
# Method: (§1) Secreted alkaine phosphatase was used as the reporter system to monitor the transcriptional activity of hTERT. Here, about […] each were grown in 96-well plates and incubated at 37° C. for 24 h and changed with fresh media. Varying amounts of drugs were added and cells were incubated for another 24 h. Culture media were collected and heated at 65° C. for 10 min to inactivate heat-labile phosphatases. An equal amount of SEAP buffer (2 M diethanolamine, 1 mM MgCl2, and 20 mM […]) was added to the media and p-nitrophenyl phosphate was added to a final concentration of 12 mM. Absorptions at 405 nm were taken, and the rate of absorption increase is determined.
# (§2) Culture media were changed every 3 days. […] The stable clones were selected using G418.
# [3] = MTT relative viability, PhTERT-SEAP (H1299) cells; details: human
# [4] = tested on: transcriptional activity of hTERT; assay: SEAP reporter assay of hTERT expression, PhTERT-SEAP (hTERT-BJ1); assay type: cell-based, human; details: Homo sapiens, hTERT-BJ1, read-out: Relative SEAP activity (%)
# Method: as §1, §2
# [5] = tested on: hepatitis B virus transfected hepatoma cell lines, HepG 2.2.15 cells; assay: Cytotoxicity assay, 2.2.15 cells; assay type: cell-based, human; details: 48 h of drug exposure
Compound,"viability at 48 h, 285 µM [1]","viability at 48 h, 2.8 µM ([1]; hTERT-BJ1 cells)","viability at 48 h, 28 µM ([1]; hTERT-BJ1 cells)","IC50 (rat glioma C6 cells; Rattus norvegicus, C6)","IC50 (human hepatoma G2 cells; Homo sapiens, HepG2)",activity at 2.8 µM [2],activity at 28 µM [2],activity at 285 µM [2],"viability at 48 h, 2.8 µM [3]","viability at 48 h, 28 µM [3]","viability at 48 h, 285 µM [3]",activity at 2.8 µM [4],activity at 28 µM [4],activity at 285 µM [4],"IC50 ([5]; Homo sapiens, HepG2.2.15)",also measured
CC(C)CNc1cccc2c1C(=O)c1cccc(NCC(C)C)c1C2=O,72 ± 3.3%,110 ± 7.6%,103 ± 3%,12.7 ± 0.37 µM,14.3 ± 1.54 µM,94 ± 7%,91 ± 2.5%,75 ± 4.1%,108 ± 4.8%,106 ± 3.7%,80 ± 4.8%,22 ± 18.3%,22 ± 21.4%,29 ± 3.9%,> 20 µM,–
NCCCNc1cccc2c1C(=O)c1cccc(NCCCN)c1C2=O,–,85 ± 6.9%,3 ± 6.9%,12.18 ± 0.04 µM,11.67 ± 0.09 µM,102 ± 4.9%,44 ± 7.5%,–,85 ± 11.5%,32 ± 9.3%,–,103 ± 19.8%,47 ± 20.5%,–,7.48 µM,"activity at 283 µM ([2]; 283 μM): 38 ± 6%; viability at 48 h, 283 µM [3]: 16 ± 2.1%; activity at 283 µM ([4]; 283 μM): 60 ± 15.1%"
"COc1cccc2c1C(=O)c1c(O)c3c(c(O)c1C2=O)C[C@@](O)(C(=O)CO)C[C@@H]3O[C@H]1C[C@H](N)[C@H](O)[C@H](C)O1 [Adriamycin, reference compound]",–,–,–,1 µM,0.9 ± 0.01 µM,–,–,–,–,–,–,–,–,–,1.6 µM,–
"N.N.[Cl][Pt][Cl] [Cisplatin, reference compound]",–,–,–,–,–,–,–,–,–,–,–,–,–,–,–,IC50 (rat glioma C6 cells): > 1 µM; IC50 (human hepatoma G2 cells): 1.48 ± 0.62 µM; IC50 [5]: 2 ± 0.54 µM
"CN(C)CCNc1cccc2c1C(=O)c1cccc(NCCN(C)C)c1C2=O [IVd, 1,5-Bis(2-dimethylaminoethylamino)anthraquinone]",–,–,–,0.12 µM,0.09 ± 0.01 µM,–,–,–,–,–,–,–,–,–,0.13 µM,"viability at 48 h, 2.6 µM ([1]; hTERT-BJ1 cells): 92 ± 4.8%; viability at 48 h, 26 µM ([1]; hTERT-BJ1 cells): 76 ± 5.9%; viability at 48 h, 262 µM ([1]; hTERT-BJ1 cells): 7 ± 18.2%; activity at 2.6 µM ([2]; 2.6 μM): 103 ± 6%; activity at 26 µM ([2]; 26 μM): 54 ± 5.9%; activity at 262 µM ([2]; 262 μM): 40 ± 5.9%; viability at 48 h, 2.6 µM [3]: 107 ± 9.1%; viability at 48 h, 26 µM [3]: 81 ± 8.3%; viability at 48 h, 262 µM [3]: 29 ± 2.6%; activity at 2.6 µM ([4]; 2.6 μM): 11 ± 22.4%; activity at 26 µM ([4]; 26 μM): -15%; activity at 262 µM ([4]; 262 μM): -26%"
"CCCCNc1cccc2c1C(=O)c1cccc(NCCCC)c1C2=O [IVj, 1,5-Bis(butylamino)anthraquinone]",75 ± 5.9%,109 ± 9.1%,99 ± 5.9%,> 20 µM,> 20 µM,106 ± 7.1%,105 ± 5.5%,98 ± 5.2%,102 ± 7%,104 ± 9.2%,81 ± 13.9%,98 ± 27.4%,103 ± 27%,123 ± 22.9%,> 20 µM,–
